Measured values reported in patent US8604016B2, “Heterocyclic inhibitors of glutaminase” (Calithera Biosciences Inc., priority 2011, dated 2013).
In brackets after ≈: the same amount, converted by molar mass. Where two headings read alike, the source gives them in different places.

What was measured:
[1] = Caco-2 Permeability Assay (bidirectional); assay type: in vitro ADME; details: human; for recovery at 120 min, 1 μM / Papp A→B at 120 min, 1 μM / Papp B→A at 120 min, 1 μM: pH 7.4; for efflux ratio at 120 min, 1 µM / Papp A→B at 120 min, 1 μM / Papp B→A at 120 min, 1 μM / permeability class (Low/High absorption potential) at 120 min, 1 µM: Caco-2; for efflux ratio at 120 min, 1 µM: (Papp B→A)/(Papp A→B); for Papp A→B at 120 min, 1 μM: Direction A→B; for Papp A→B at 120 min, 1 μM / Papp B→A at 120 min, 1 μM: unit not given (thresholds in 10^−6 cm/s); for Papp B→A at 120 min, 1 μM: Direction B→A; for permeability class (Low/High absorption potential) at 120 min, 1 µM: read-out: Permeability Classification
Source text: (§1) Caco-2 cells are commonly used in a confluent monolayer on a cell culture insert filter. When cultured in this format and under specific conditions, the cells become differentiated and polarized such that their phenotype, morphologically and functionally resembles the enterocytes lining the small intestine. The cell monolayer provides a physical and biochemical barrier to the passage of small molecules, and is widely used across the pharmaceutical industry as an in vitro model of the human small intestinal mucosa to predict the absorption of orally administered drugs (Hidalgo et al., Gastroenterology, 1989; Artursson, J. Pharm. Sci., 1990). The correlation between the in vitro apparent permeability (P ? app) across Caco-2 monolayers and the in vivo absorption is well established (Artursson et al., Biochem. Biophys. Res. Comm., 1991).
(§2) The present assay was used to determine the bidirectional permeability of the compounds of the invention through Caco-2 cell monolayers. Caco-2 cells were grown in confluent monolayers where the media of both the apical (A) and basolateral (B) sides were at pH 7.4. Compounds were dosed at 1 μM in the presence of 200 μM Lucifer Yellow, on the apical side (A→B) or the basolateral side (B→A) for assessment, in duplicate.
(§3) The absorption potential of compounds were classified as either Low (P-app <1×10^−6 cm/s) or High (P-app >1×10^−6 cm/s).

[2] = system: Caco-2 cell monolayers; test: Caco-2 Permeability Assay (bidirectional); assay type: in vitro ADME
Source text: as §1, §2, §3

[3] = Solubility (18 hr vortex mixing at room temperature, filtration, HPLC); assay type: physicochemical; details: thermodynamic from solid
Procedure: Ca. 1 mg portions of test article were combined with 120 μL solvent in wells of a 96×2 mL polypropylene plate. […] The contents of all wells were then filtered through a 0.45 μm GHP filter plate to yield clear filtrates. 5 μL of each filtrate was diluted into 100 μL DMF and vortex mixed to yield HPLC samples. Duplicate quantitation standards for each test article were prepared by diluting weighed portions of solid test article in measured volumes of DMF. 2 μL of each HPLC sample and quantitation standard were analyzed by HPLC using the method outlined in Table 5. Dissolved test article concentrations were calculated by peak area ratio against the appropriate quantitation standards.

[4] = system: P493-6 (myc "on") cells; test: Cell Proliferation Assay (72 hrs, Cell Titer Glo or Viacount FACS); assay type: cell-based; details: P493-6 cells, 72 h, read-out: Cell prolif P493 72h
Procedure: P493-6 (myc “on”) cells were maintained in growth media (RPMI-1640, 10% FBS, 2 mM glutamine, 100 units/ml Penicillin and 100 μg/ml streptomycin) at 37° C. with 5% CO2. For compound assay, P493-6 cells were plated in 96-well V-bottom plates on the day of compound addition in 50 μl of growth media at a cell density of 200,000 cells/ml (10,000 cells/well). Compounds were serially diluted in 100% DMSO at 200-times the final concentration. Compounds were diluted 100-fold into growth media and then 50 μl of this mixture was added to cell plates making the final concentration of DMSO 0.5%. Cells were incubated with compound for 72 hrs at 37° C. with 5% CO2 and analyzed for antiproliferative effects either by Cell Titer Glo (Promega) or FACS analysis using the Viacount (Millipore) kit on the Guava instrument.

[5] = 50 mM citrate buffer pH 2.3, 20 °C, aqueous buffer, 50 mM Cit pH 2.3, room temperature
[6] = 50 mM citrate buffer pH 3.3, 20 °C, aqueous buffer, 50 mM Cit pH 3.3, room temperature
[7] = 50 mM citrate buffer pH 4.4, 20 °C, aqueous buffer, 50 mM Cit pH 4.4, room temperature
[8] = 50 mM citrate buffer pH 5.4, 20 °C, aqueous buffer, 50 mM Cit pH 5.4, room temperature
[9] = 20 °C, aqueous buffer, PBS, room temperature
[10] = 20 °C, aqueous with cosolvent or surfactant or cyclodextrin, 10% CrEL/50 mM cit, room temperature
[11] = 20 °C, aqueous with cosolvent or surfactant or cyclodextrin, 10% PS80/50 mM cit, room temperature
[12] = 20 °C, aqueous with cosolvent or surfactant or cyclodextrin, 20% HPBCD/50 mM cit, room temperature
[13] = 20 °C, aqueous with cosolvent or surfactant or cyclodextrin, 20% SBECD/50 mM cit, room temperature
[14] = 20 °C, oil or lipid, Capryol 90, room temperature
[15] = 20 °C, oil or lipid, Capryol PGMC, room temperature
[16] = 20 °C, oil or lipid, Labrasol, room temperature
[17] = 20 °C, oil or lipid, canola oil, room temperature
[18] = 20 °C, organic solvent or mixture, EtOH, room temperature
[19] = 20 °C, organic solvent or mixture, PEG400, room temperature
[20] = 20 °C, organic solvent or mixture, PG, room temperature
[21] = 20 °C, pH 1, simulated gastric fluid, 0.1M HCl, room temperature
[22] = 20 °C, pH 13, aqueous buffer, 0.1M NaOH, room temperature
[23] = 20 °C, saline or isotonic, 0.9% NaCl, room temperature
[24] = water, room temperature (ca. 20 C)

Compound	recovery at 120 min, 1 μM ([1]; Caco-2, pH 7.4, Direction A→B)	recovery at 120 min, 1 μM ([1]; Caco-2, pH 7.4, Direction B→A)	efflux ratio at 120 min, 1 µM [1]	Papp A→B at 120 min, 1 μM [1]	Papp B→A at 120 min, 1 μM [1]	permeability class (Low/High absorption potential) at 120 min, 1 µM [1]	Significant Efflux [2]	solubility at 18 h [3, 5]	solubility at 18 h [3, 6]	solubility at 18 h [3, 7]	solubility at 18 h [3, 8]	solubility at 18 h [3, 9]	solubility at 18 h [3, 10]	solubility at 18 h [3, 11]	solubility at 18 h [3, 12]	solubility at 18 h [3, 13]	solubility at 18 h [3, 14]	solubility at 18 h [3, 15]	solubility at 18 h [3, 16]	solubility at 18 h [3, 17]	further results
O=C(Cc1cccc(OC(F)(F)F)c1)Nc1ccc(CCCCc2nnc(NC(=O)C(O)c3cccc(Cl)c3)s2)nn1 (centres unmarked) [Compound 447]	71%	56%	3.5	7.76 ×10⁻⁶ cm/s	27.2 ×10⁻⁶ cm/s	> 1 ×10⁻⁶ cm/s	Yes (efflux ratios being significant when greater than or equal to 3 when the Papp (B→A) was greater than or equal to 1×10^−6 cm/s)	< 4 µg/mL	< 4 µg/mL	< 4 µg/mL	< 4 µg/mL	< 4 µg/mL	732 µg/mL (≈ 1180 µM)	851 µg/mL (≈ 1370 µM)	2180 µg/mL (≈ 3510 µM)	2720 µg/mL (≈ 4380 µM)	11100 µg/mL (≈ 17900 µM)	7920 µg/mL (≈ 12700 µM)	77200 µg/mL (≈ 124000 µM)	71 µg/mL (≈ 114 µM)	solubility at 18 h [3, 18]: 3920 µg/mL (≈ 6310 µM); solubility at 18 h [3, 19]: 57300 µg/mL (≈ 92300 µM); solubility at 18 h [3, 20]: 8260 µg/mL (≈ 13300 µM); solubility at 18 h [3, 21]: < 4 µg/mL; solubility at 18 h [3, 22]: 192 µg/mL (≈ 309 µM); solubility at 18 h [3, 23]: 5 µg/mL (≈ 8.05 µM); solubility at 18 h [3, 24]: < 4 µg/mL
O=C(Cc1cccc(OC(F)(F)F)c1)Nc1ccc(CCCCc2nnc(NC(=O)Cc3ccccc3)s2)nn1 [Compound 585]	42%	53%	3.1	7.52 ×10⁻⁶ cm/s	23.4 ×10⁻⁶ cm/s	> 1 ×10⁻⁶ cm/s	Yes (efflux ratios being significant when greater than or equal to 3 when the Papp (B→A) was greater than or equal to 1×10^−6 cm/s)	< 2 µg/mL	< 2 µg/mL	< 2 µg/mL	< 2 µg/mL	< 2 µg/mL	228 µg/mL (≈ 400 µM)	261 µg/mL (≈ 457 µM)	327 µg/mL (≈ 573 µM)	125 µg/mL (≈ 219 µM)	1740 µg/mL (≈ 3060 µM)	1780 µg/mL (≈ 3120 µM)	5000 µg/mL (≈ 8770 µM)	72 µg/mL (≈ 126 µM)	solubility at 18 h [3, 18]: 1990 µg/mL (≈ 3490 µM); solubility at 18 h [3, 19]: 3940 µg/mL (≈ 6910 µM); solubility at 18 h [3, 20]: 1420 µg/mL (≈ 2490 µM); solubility at 18 h [3, 21]: < 2 µg/mL; solubility at 18 h [3, 22]: 192 µg/mL (≈ 336 µM); solubility at 18 h [3, 23]: < 2 µg/mL; solubility at 18 h [3, 24]: < 2 µg/mL
Nc1nnc(CCCCc2ccc(NC(=O)Cc3cccc(OC(F)(F)F)c3)nn2)s1 [Compound 657, N-(6-(4-(5-amino-1,3,4-thiadiazol-2-yl)butyl)pyridazin-3-yl)-2-(3-(trifluoromethoxy)phenyl)acetamide]																					IC50 ([4]; P493-6, 72 h): 1500 nM
O=C(Cc1cccc(OC(F)(F)F)c1)Nc1ccc(CCCCc2nnc(NC(=O)Cc3ccccn3)s2)nn1 [Compound 670]	70%	72%		9.64 ×10⁻⁶ cm/s	59.6 ×10⁻⁶ cm/s	> 1 ×10⁻⁶ cm/s	Yes (efflux ratios being significant when greater than or equal to 3 when the Papp (B→A) was greater than or equal to 1×10^−6 cm/s)														IC50 [4]: 30 nM
O=C(Cc1cccc(OC(F)(F)F)c1)Nc1ccc(CCCCc2nnc(NC(=O)[C@@H](O)c3ccccc3)s2)nn1 [Compound 703]	51%	66%	6.6	6.26 ×10⁻⁶ cm/s	41 ×10⁻⁶ cm/s	> 1 ×10⁻⁶ cm/s	Yes (efflux ratios being significant when greater than or equal to 3 when the Papp (B→A) was greater than or equal to 1×10^−6 cm/s)	< 4 µg/mL	< 4 µg/mL	< 4 µg/mL	< 4 µg/mL	< 4 µg/mL	309 µg/mL (≈ 527 µM)	378 µg/mL (≈ 644 µM)	651 µg/mL (≈ 1110 µM)	476 µg/mL (≈ 811 µM)	7410 µg/mL (≈ 12600 µM)	3680 µg/mL (≈ 6280 µM)	20700 µg/mL (≈ 35300 µM)	14 µg/mL (≈ 23.9 µM)	solubility at 18 h [3, 18]: 2640 µg/mL (≈ 4510 µM); solubility at 18 h [3, 19]: 22400 µg/mL (≈ 38200 µM); solubility at 18 h [3, 20]: 4700 µg/mL (≈ 8010 µM); solubility at 18 h [3, 21]: < 4 µg/mL; solubility at 18 h [3, 22]: 656 µg/mL (≈ 1120 µM); solubility at 18 h [3, 23]: < 4 µg/mL; solubility at 18 h [3, 24]: < 4 µg/mL
